Measurements: patent publication US20110282028A1, “METHOD FOR IDENTIFYING INHIBITORS OF LIPOTEICHOIC ACID SYNTHASE” (UNIVERSITY OF NEWCASTLE UPON TYNE, priority 2008, published 2011)

Key:
Type in all cases: cell-based, B. subtilis
[1] = system: ltaS mutant (strain 4286); test: Sensitivity to cations, dilutions spotted on NA plates, ltaS mutant; details: 37° C.
Procedure: (§1) FIG. 3—Effect of metal ion concentration of viability of wild-type and ltaS mutants: A. Growth of wild-type (168) and ltaS mutant (strain 4286) at 37° C. in on NA plates without additives (left), containing 0.5 mM Mg^2+ (middle) or with addition of 0.05 mM Mn^2+ (right). B. Growth of ltaS mutant (strain 4283, left) and wild-type (strain 168, right) on minimal medium plates containing 10, 100 and 500 μM Mg^2+ as indicated.
(§2) Liquid cultures of B. subtilis strains were grown in Difco Antibiotic Medium 3 (PAB), CH medium (Nicholson & Setlow, 1990), or S-medium (Karamata & Gross, 1970) at 37° C. Nutrient agar (Oxoid) plates were used for growth on solid medium, Modified Salts Medium plates with defined Mg^2+ concentrations were prepared as described previously (Carballido-López et al., 2006). The given concentration of Mg^2+ was achieved by addition of MgSO4 to the medium. DNA manipulations and B. subtilis strains were transformed according to the method of Anagnostopoulos and Spizizen (1961) as modified by Jenkinson (1983). Selection for B. subtilis transformants was carried out on nutrient agar (Oxoid), supplemented with antibiotics, as required, with: kanamycin ([…]) chloramphenicol ([…]), erythromycin ([…] ml^−1), lincomycin ([…] ml^−1) and/or spectinomycin ([…]). […]

wild-type (168) = test: Sensitivity to cations, dilutions spotted on NA plates, wild-type; details: 0.05 mM MnSO4 added to nutrient agar (NA), 37° C.
Procedure: as §1, §2

ltaS mutant [2] = test: Zone of inhibition on solid medium, ltaS mutant compared with wild-type; details: data not shown
Source text: (§3) In the process of constructing the deletion strain, we noticed that the ltaS mutant was also hyper-sensitive to various antibiotics and lysozyme. […] In other experiments on solid medium the zone of inhibition of all antibiotics tested (kanamycin, ampicillin, vancomycin, penicillin, spectinomycin, erythromycin, lincomycin, carbenicillin) was wider for the ltaS mutant than for the wild-type (not shown). […] The general increase in sensitivity of the mutant to antibiotics and lysozyme is consistent with the notion that LTA also provides a protective layer that restricts the access of many bioactive agents to sensitive sites in the cell envelope.

ltaS mutant [3] = test: Susceptibility of ltaS mutant to lysozyme; details: data not shown
Source text: as §3

O=S(=O)([O-])[O-].[Mg+2] [Mg^2+, MgSO4] was tested, and the “growth of the ltaS mutant” value ([1]; 0.5 mM Mg^2+ added to nutrient agar (NA)) was “no effect”.
For O=S(=O)([O-])[O-].[Mn+2] [MnSO4], the “growth of the ltaS mutant” value ([1]; 0.05 mM MnSO4 added to nutrient agar (NA)) was “abolished growth” and the “growth of the wild-type” value (wild-type (168)) was “unaffected”.
CC1(C)S[C@@H]2[C@H](NC(=O)[C@H](N)c3ccccc3)C(=O)N2[C@H]1C(=O)O [ampicillin] was tested, and the “zone of inhibition for the ltaS mutant versus the wild-type” value (ltaS mutant [2]) was “wider”.
CC1(C)S[C@@H]2[C@H](NC(=O)C(C(=O)O)c3ccccc3)C(=O)N2[C@H]1C(=O)O (some centres unmarked) [carbenicillin] was tested, and the “zone of inhibition for the ltaS mutant versus the wild-type” value (ltaS mutant [2]) was “wider”.
In the case of CC[C@H]1OC(=O)[C@H](C)[C@@H](O[C@H]2C[C@@](C)(OC)[C@@H](O)[C@H](C)O2)[C@H](C)[C@@H](O[C@@H]2O[C@H](C)C[C@H](N(C)C)[C@H]2O)[C@](C)(O)C[C@@H](C)C(=O)[C@H](C)[C@@H](O)[C@]1(C)O [erythromycin], the “zone of inhibition for the ltaS mutant versus the wild-type” value (ltaS mutant [2]) was “wider”.
CCC[C@@H]1C[C@@H](C(=O)N[C@@H]([C@H]2O[C@H](SC)[C@H](O)[C@@H](O)[C@H]2O)[C@@H](C)O)N(C)C1 [lincomycin] was tested, and the “zone of inhibition for the ltaS mutant versus the wild-type” value (ltaS mutant [2]) was “wider”.
CN[C@@H]1[C@H](O)[C@H](NC)[C@H]2O[C@@]3(O)C(=O)C[C@@H](C)O[C@H]3O[C@@H]2[C@H]1O [spectinomycin] was tested, and the “zone of inhibition for the ltaS mutant versus the wild-type” value (ltaS mutant [2]) was “wider”.
In the case of CN[C@H](CC(C)C)C(=O)N[C@H]1C(=O)N[C@@H](CC(N)=O)C(=O)N[C@H]2C(=O)N[C@H]3C(=O)N[C@H](C(=O)N[C@H](C(=O)O)c4cc(O)cc(O)c4-c4cc3ccc4O)[C@H](O)c3ccc(c(Cl)c3)Oc3cc2cc(c3O[C@@H]2O[C@H](CO)[C@@H](O)[C@H](O)[C@H]2O[C@H]2C[C@](C)(N)[C@H](O)[C@H](C)O2)Oc2ccc(cc2Cl)[C@H]1O [vancomycin], the “zone of inhibition for the ltaS mutant versus the wild-type” value (ltaS mutant [2]) was “wider”.
With lysozyme the “susceptibility of the ltaS mutant to lysozyme” value (ltaS mutant [3]) was “increased susceptibility”.
With penicillin the “zone of inhibition for the ltaS mutant versus the wild-type” value (ltaS mutant [2]) was “wider”.
